Assay [1] addresses Rho-associated protein kinase 1 (Homo sapiens) (UniProt Q13464). Description: Selectivity interaction (ActivX KiNativ screen (ex vivo kinase selectivity in human PBMCs)) EUB0001619a ROCK1. It is filed as cell-based. As to conditions: PBMC, at 1 µM.
The target in assay [2] is Tyrosine-protein kinase CSK (Homo sapiens) (UniProt P41240). Kind of assay: Selectivity interaction (SelectScreen profiling (Invitrogen)) EUB0000607a CSK. As to conditions: at 2 µM.
In assay [3] the target is Cyclin-dependent kinase 18 (Homo sapiens) (UniProt Q07002). Kind of assay: Selectivity interaction (KinomeScan (DiscoverX)) EUB0000607a CDK18. As to conditions: at 10 µM.
For assay [4], the target named is Casein kinase I isoform alpha (Homo sapiens, UniProt P48729). Kind of assay: Selectivity interaction (Kinase screening (Upstate/Millipore)) EUB0000604a CSNK1A1.
Sequence of Casein kinase I isoform alpha (P48729 2-337 limits assumed): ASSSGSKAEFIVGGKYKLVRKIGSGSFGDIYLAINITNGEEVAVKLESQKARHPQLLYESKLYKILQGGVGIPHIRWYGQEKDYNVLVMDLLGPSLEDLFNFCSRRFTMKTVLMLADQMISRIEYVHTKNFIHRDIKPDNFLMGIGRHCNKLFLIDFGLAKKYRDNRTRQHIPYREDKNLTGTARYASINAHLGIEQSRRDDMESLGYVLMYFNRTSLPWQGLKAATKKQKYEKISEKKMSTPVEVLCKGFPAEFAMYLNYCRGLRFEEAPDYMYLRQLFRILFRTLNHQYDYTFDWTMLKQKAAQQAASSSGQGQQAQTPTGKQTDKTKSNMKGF
The target in assay [5] is Cyclin-dependent kinase 5 (Homo sapiens, UniProt Q00535). Kind of assay: Selectivity interaction (ActivX KiNativ screen (kinase selectivity in THP-1 cell lysates)) EUB0000639a CDK5. It is filed as subcellular. Conditions: lysate.
Sequence of Cyclin-dependent kinase 5 (Q00535 whole entry, looked up): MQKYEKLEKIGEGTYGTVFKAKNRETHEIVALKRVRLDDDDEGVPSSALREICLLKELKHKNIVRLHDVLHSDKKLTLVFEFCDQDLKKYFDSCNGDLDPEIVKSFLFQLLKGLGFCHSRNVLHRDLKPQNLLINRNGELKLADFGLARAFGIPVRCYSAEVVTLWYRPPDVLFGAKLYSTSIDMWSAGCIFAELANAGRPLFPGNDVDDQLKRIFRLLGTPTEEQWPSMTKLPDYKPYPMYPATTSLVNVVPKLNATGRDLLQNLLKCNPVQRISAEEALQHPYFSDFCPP
Assay [6] has as its target SWI/SNF-related matrix-associated actin-dependent regulator of chromatin subfamily A member 2 (Homo sapiens, UniProt P51531). Kind of assay: Selectivity interaction (Bromodomain panel (DSF asssay)) EUB0000270b SMARCA2.
Assay [7] has as its target Non-receptor tyrosine-protein kinase TYK2 (Homo sapiens, UniProt P29597). Description: Selectivity interaction (KinomeScan (DiscoverX)) EUB0000092b TYK2. Conditions: at 10 µM.
In assay [8] the target is T1, Tyrosine-protein kinase JAK3 (Homo sapiens) (UniProt P52333).
T1 sequence (whole entry): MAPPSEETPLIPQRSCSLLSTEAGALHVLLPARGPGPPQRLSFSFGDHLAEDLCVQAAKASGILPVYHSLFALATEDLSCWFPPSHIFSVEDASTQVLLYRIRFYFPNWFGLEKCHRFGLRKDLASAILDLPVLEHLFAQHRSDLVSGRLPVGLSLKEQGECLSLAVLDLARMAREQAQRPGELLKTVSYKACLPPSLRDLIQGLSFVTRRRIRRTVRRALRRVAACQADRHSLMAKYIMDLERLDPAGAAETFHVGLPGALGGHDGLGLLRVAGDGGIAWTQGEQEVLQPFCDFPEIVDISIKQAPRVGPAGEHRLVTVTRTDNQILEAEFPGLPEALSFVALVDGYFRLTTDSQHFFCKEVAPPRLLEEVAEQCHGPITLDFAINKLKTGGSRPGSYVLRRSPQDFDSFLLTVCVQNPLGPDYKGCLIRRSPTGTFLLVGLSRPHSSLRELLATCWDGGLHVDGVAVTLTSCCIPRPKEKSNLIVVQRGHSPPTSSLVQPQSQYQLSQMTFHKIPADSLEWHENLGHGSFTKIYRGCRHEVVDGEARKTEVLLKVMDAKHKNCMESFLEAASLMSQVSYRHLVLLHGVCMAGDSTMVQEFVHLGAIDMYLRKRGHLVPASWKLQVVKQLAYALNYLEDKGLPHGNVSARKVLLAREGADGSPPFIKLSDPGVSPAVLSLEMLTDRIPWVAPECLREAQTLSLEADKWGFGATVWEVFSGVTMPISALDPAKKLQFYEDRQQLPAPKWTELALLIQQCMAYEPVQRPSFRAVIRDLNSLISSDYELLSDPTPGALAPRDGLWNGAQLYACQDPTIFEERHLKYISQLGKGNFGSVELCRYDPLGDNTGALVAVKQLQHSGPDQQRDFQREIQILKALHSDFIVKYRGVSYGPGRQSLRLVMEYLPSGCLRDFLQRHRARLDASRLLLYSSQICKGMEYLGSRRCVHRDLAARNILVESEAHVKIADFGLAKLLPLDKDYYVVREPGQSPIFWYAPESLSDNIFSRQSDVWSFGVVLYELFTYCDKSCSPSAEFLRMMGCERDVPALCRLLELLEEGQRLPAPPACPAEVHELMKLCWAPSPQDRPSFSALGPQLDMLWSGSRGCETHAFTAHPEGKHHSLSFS
Kind of assay: Selectivity interaction (KinomeScan (DiscoverX)) EUB0001079a JAK3. Conditions: at 1 µM.

The target in assay [9] is T2, Alpha-2C adrenergic receptor (Homo sapiens) (UniProt P18825).
T2 sequence (whole entry): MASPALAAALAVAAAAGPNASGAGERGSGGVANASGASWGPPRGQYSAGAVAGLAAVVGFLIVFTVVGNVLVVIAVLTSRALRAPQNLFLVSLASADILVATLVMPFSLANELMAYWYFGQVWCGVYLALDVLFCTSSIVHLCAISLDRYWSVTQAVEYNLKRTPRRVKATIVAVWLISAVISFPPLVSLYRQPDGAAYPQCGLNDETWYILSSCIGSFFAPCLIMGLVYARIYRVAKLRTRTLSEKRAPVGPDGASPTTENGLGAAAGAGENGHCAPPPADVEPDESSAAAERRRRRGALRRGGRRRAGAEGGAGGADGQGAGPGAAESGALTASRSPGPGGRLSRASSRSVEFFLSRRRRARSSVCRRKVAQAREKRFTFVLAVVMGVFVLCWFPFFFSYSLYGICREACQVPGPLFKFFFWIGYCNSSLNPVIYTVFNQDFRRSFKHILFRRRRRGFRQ
Description: Selectivity interaction (Panel of kinases, GPCRs, ion channels and transporters (enzymatic assay)) EUB0000266bCl ADRA2C.

Assay [10] has as its target Mitogen-activated protein kinase 14 (Homo sapiens, UniProt Q16539). Kind of assay: Selectivity interaction (Millipore kinase profiler) EUB0000124b MAPK14. As to conditions: at 10 µM.
Assay [11] concerns the target Vascular endothelial growth factor receptor 3 (Homo sapiens, UniProt P35916). Description: Selectivity interaction (KinomeScan (DiscoverX)) EUB0000229b FLT4. Conditions: at 10 µM.
Assay [12] concerns the target LIM domain kinase 1 (Homo sapiens) (UniProt P53667). Description: Selectivity interaction (KinomeScan (DiscoverX)) EUB0000229b LIMK1. As to conditions: at 10 µM.

Molecules are shown by their SMILES.

Sequence of Tyrosine-protein kinase CSK (Homo sapiens) (P41240 2-450 limits assumed): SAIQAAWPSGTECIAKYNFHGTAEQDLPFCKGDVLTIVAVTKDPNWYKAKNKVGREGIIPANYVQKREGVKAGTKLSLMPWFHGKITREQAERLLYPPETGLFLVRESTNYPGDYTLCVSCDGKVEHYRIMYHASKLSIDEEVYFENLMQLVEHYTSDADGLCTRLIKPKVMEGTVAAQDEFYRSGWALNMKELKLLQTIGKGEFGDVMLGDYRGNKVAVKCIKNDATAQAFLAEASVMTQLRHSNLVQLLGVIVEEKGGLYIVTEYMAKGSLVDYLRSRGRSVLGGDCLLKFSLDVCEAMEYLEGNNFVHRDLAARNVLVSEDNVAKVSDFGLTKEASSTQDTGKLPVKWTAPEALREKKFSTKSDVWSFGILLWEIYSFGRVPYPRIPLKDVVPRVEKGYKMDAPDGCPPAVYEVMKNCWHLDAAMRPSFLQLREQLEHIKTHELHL
Sequence of SWI/SNF-related matrix-associated actin-dependent regulator of chromatin subfamily A member 2 (P51531 whole entry): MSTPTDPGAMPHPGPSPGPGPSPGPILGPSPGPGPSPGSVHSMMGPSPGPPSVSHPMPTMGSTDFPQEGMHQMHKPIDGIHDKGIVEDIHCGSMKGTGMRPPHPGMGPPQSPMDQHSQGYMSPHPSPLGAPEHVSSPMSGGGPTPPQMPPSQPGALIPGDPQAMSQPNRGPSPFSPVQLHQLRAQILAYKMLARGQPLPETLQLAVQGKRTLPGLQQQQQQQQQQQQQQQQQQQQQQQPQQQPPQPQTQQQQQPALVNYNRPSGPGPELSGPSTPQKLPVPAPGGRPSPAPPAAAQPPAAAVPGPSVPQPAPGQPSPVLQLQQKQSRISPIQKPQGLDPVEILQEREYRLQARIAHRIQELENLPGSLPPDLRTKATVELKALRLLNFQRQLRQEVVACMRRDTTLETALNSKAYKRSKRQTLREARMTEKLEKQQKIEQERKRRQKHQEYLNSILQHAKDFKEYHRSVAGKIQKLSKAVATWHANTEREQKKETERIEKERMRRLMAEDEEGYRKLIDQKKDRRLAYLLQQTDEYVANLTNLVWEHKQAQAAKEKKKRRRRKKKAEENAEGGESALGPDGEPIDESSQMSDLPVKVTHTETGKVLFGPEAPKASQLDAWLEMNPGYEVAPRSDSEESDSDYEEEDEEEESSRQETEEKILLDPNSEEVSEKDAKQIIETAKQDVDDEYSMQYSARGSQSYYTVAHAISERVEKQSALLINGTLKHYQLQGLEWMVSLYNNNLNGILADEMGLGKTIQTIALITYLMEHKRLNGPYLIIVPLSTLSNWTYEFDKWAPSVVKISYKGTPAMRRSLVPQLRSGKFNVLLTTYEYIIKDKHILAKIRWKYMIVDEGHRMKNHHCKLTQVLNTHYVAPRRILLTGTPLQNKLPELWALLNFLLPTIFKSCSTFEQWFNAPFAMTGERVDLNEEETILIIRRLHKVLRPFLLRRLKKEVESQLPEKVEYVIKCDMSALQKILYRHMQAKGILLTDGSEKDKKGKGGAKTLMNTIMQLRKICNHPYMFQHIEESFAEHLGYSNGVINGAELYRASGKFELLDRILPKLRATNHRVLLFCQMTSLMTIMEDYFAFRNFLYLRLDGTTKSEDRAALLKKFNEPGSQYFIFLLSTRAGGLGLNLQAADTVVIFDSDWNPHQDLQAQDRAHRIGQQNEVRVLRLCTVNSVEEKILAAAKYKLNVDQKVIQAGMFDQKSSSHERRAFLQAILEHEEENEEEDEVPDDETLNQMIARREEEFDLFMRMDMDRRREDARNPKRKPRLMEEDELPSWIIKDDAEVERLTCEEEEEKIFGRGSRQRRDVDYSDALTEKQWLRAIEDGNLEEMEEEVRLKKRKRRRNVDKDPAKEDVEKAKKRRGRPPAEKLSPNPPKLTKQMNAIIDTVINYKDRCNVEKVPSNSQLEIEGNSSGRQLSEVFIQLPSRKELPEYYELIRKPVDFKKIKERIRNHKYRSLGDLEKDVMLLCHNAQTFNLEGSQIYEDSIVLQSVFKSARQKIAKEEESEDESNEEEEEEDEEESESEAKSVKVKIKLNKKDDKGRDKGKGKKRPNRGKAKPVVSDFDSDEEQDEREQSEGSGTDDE
Sequence of Rho-associated protein kinase 1 (Homo sapiens) (Q13464 2-1354 limits assumed): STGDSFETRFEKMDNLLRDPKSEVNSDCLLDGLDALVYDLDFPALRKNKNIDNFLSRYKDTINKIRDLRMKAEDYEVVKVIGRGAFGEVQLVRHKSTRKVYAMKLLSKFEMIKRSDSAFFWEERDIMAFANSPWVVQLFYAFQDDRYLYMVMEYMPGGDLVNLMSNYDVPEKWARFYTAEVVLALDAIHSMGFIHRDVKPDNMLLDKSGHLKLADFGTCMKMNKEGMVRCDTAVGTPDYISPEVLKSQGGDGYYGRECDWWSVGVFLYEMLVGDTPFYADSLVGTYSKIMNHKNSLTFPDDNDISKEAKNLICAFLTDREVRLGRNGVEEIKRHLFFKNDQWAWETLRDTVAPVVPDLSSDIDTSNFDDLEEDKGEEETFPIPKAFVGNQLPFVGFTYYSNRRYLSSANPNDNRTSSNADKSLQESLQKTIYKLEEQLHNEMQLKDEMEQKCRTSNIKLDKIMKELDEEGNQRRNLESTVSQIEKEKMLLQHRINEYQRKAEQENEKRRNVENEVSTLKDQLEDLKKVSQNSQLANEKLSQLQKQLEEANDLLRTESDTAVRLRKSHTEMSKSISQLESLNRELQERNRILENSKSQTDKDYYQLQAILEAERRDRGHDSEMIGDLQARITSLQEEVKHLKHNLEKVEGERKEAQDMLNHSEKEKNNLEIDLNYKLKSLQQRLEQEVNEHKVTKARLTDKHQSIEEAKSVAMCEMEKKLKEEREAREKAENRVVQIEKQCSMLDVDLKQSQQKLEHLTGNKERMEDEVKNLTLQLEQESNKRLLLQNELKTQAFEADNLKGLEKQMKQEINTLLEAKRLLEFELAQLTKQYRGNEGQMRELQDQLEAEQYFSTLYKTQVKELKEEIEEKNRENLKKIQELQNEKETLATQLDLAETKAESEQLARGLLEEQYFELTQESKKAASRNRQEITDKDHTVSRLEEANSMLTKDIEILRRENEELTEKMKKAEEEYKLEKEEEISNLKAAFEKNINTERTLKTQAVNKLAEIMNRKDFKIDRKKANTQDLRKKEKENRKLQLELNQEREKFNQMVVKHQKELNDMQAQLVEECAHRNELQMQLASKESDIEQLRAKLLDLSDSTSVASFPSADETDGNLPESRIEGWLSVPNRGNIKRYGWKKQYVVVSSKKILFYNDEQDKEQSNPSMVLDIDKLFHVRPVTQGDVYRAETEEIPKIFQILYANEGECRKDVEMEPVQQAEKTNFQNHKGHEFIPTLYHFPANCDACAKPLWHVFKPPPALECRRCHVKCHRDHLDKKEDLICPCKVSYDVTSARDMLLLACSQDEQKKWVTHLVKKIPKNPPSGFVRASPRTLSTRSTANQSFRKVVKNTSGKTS
Sequence of LIM domain kinase 1 (Homo sapiens) (P53667 whole entry, looked up, the tested form may be a part): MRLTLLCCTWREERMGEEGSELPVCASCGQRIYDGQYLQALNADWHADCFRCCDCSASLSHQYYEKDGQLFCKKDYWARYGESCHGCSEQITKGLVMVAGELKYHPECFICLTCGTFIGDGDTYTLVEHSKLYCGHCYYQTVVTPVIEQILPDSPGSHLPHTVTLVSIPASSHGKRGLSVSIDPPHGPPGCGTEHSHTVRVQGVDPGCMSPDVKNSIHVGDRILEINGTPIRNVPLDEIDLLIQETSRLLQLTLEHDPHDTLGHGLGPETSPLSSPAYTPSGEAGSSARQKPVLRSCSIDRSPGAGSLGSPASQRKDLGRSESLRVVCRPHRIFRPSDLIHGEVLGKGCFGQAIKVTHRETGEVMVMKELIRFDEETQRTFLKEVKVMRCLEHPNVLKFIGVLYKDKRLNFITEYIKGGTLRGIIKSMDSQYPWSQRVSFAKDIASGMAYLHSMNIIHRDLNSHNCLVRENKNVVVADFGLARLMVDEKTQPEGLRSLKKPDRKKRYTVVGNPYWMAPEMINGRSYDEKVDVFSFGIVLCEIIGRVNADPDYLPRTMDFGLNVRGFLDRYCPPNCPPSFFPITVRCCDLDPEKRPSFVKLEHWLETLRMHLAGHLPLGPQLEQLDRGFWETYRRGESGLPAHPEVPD
Sequence of Mitogen-activated protein kinase 14 (Q16539 whole entry): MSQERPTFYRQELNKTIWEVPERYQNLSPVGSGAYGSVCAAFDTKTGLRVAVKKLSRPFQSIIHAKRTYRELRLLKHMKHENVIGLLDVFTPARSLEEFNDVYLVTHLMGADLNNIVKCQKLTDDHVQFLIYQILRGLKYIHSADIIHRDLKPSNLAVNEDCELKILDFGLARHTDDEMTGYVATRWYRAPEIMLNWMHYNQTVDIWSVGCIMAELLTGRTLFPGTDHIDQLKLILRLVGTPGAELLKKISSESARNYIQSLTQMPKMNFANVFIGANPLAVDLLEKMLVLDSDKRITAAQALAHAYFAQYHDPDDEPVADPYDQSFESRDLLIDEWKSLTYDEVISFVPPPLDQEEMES

For `N#Cc1cccc(-c2c[nH]c3ncnc(N4CCOCC4)c23)c1`, in assay [1], the % of inhibition was -3%.

Regarding `CNC(=O)Nc1ccc(-c2nc(N3CC4CCC(C3)O4)c3cnn(C4CCC5(CC4)OCCO5)c3n2)cc1`, the % of inhibition in [2] was -1%. In [3], this compound came in with a % of control of 92%.

As to `Cc1cnc(Nc2ccc(F)cc2Cl)nc1-c1c[nH]c(C(=O)N[C@H](CO)c2cccc(Cl)c2)c1`, the % of inhibition in [4] was determined as 25%.

Regarding `CC[C@@H]1[C@H](F)C(=O)N[C@@H]1COc1nccc2cc(C(N)=O)c(OC)cc12` [ZIMLOVISERTIB], the % of inhibition in assay [5] (at 0.01 µM) is 3.6%; in [5] (at 0.04 µM), 3.9%; in assay [5] (at 0.2 µM), -0.2%; in assay [5] (at 1 µM) it was 2.7%; in assay [5] (at 5 µM), -6.9%.

In assay [6], `Cc1cc(CN)cc(C)c1-c1ncn(C)c1-c1cncn1C` came in with a dTM of -0.5 K.

For the compound `CCC(=O)N1CCN(c2ccc(-n3c(=O)ccc4cnc5ccc(-c6cnc7ccccc7c6)cc5c43)cc2C(F)(F)F)CC1`, the % of control in assay [7] came to 55%.

As for `Nc1cnc(N2CCc3cc(S(=O)(=O)Nc4c(F)cc(Cl)cc4F)cc(N4CCCC4=O)c32)nc1` [TP-020n], in [8], the % of control came out at 100%.

In assay [9], `CCn1c(-c2nc3cc(C(=O)N4CCCC(N)C4)ccc3n2C)cc2ccccc21` (stereo unspecified) had a pXC50 below 4.5 M.

Compound `CC(=O)Nc1cccc(-n2c(=O)n(C3CC3)c(=O)c3c(Nc4ccc(I)cc4F)n(C)c(=O)c(C)c32)c1` had a % of control in assay [10] of 84%.

As to `COc1cc(N(C)c2ccnc3ccc(C(F)(F)F)cc23)cc(OC)c1OC`, the % binding in assay [11] was found to be 96%; in assay [12], 89%.
